Measured values as given in patent US20100233194A1, “TREATMENT OF NEOVASCULAR OCULAR DISEASE STATES” (priority 2007, published 2010).

Test system: VEGF-induced retinal vascular leakage
Experiment: VEGF-induced vascular leakage in a rabbit model of blood-retinal barrier breakdown (ocular fluorophotometry)
Settings: for Inhibition of retinal vascular leakage: single intravitreal injection Day 0, 500 ng rhVEGF165 Day 5, fluorophotometry Day 7, rabbit

Structure (SMILES): CC1(C)O[C@@H]2C[C@H]3[C@@H]4CCC5=CC(=O)C=C[C@]5(C)[C@@]4(F)[C@@H](O)C[C@]3(C)[C@]2(C(=O)CO)O1 [TA, triamcinolone acetonide]
- Inhibition of retinal vascular leakage (TA 75 μg): 13%
- Inhibition of retinal vascular leakage (TA 400 μg): 96%
- inhibition of the VEGF-induced retinal vascular leakage (separate study, TA 75 μg alone): 10%
